One data set has as its system JAK1/Tyk2. Put plainly: IFN-γ T cell phospho-STAT1. Type of data set: cell-based. The note with it: Homo sapiens. On the procedure: (§1) The activity of Compound III and Compound I was assessed in a panel of cell-based assays. Compound III and Compound I are selective inhibitors of JAK1/3-dependent signaling. Data for a non-selective JAK inhibitor (Compound IV) is shown for reference. Mixed lymphocyte reactions (MLRs) were performed by incubating freshly prepared naive human peripheral blood lymphocytes from one donor with CD80+/CD86+ mature Dendritic Cells derived from a different donor for 5 days. The percentage of CD3+/CD71+ (anti-CD3-APC, Clone HIT3a, anti-CD 71-FITC, Clone M-A712; BD Biosciences, San Jose, Calif.) proliferating cells was assessed by fluorescence-activated cell sorting (FACS; BD Bioscience). Interleukin-2 (IL-2)-dependent human primary T cell proliferation was assessed using CellTiter-Glo® Luminescent Cell Viability Assay (Promega, Madison, Wis.). STAT phosphorylation induced by different cytokines in human primary T cells was measured by intracellular FACS analysis (anti-pY694-STAT5 AlexaFluor488, anti-pY701-STAT1 AlexaFluor488, and anti-pY693-STAT4 AlexaFluor488; BD Biosciences). […] Interferon-γ (IFN-γ) signaling was assessed in the U937 monocytic cell line by measuring ICAM-1 surface expression by FACS (ICAM-1-APC, BD Bioscience).

The subject of data set [1] is Lew recipients of heterotopic BN heart transplants. Put plainly: Five-day heart allograft study: donor-specific IgM antibodies by flow cytometry. It counts as in vivo, rat. To be noted: LD and HD groups; five days; p<0.001. Here is the method: Compound I and Compound III were provided by Rigel (South San Francisco, Calif.) and Tacrolimus was provided by Astellas (Munich, Germany). All drugs were administrated orally each in two different concentrations: Compound I LD (15 mg/kg BID; n=6) and HD (60 mg/kg BID; n=6); Compound III LD (5 mg/kg BID; n=6) and HD (20 mg/kg BID; n=6); Tac LD (1 mg/kg QD; n=6) and HD (4 mg/kg QD; n=6). Administration of all drugs was performed every day at the same time points. Tacrolimus was applied only once a day (QD) every 24 hours. During administration of Compound I (BID) and Compound III (BID) a 12 hour pause was kept in between each drug application.
Lew recipients of heterotopic BN heart transplants were randomly assigned to their group. Animals were either left untreated (groups 1 and 2; see Table 1,5-day study) or received their group specific medication (groups 3-8; see Table 1,5-day study) by oral application. An untreated syngeneic transplant group Lew-Lew was generated as control.
Donor splenocytes were isolated and erythrocytes were lysed using the ACK buffer (Lonza, Walkersville, Md.). Sera from recipient rats were decomplemented and equal amounts of sera and splenocyte suspensions (5×10^6 cells/ml) were incubated for 30 minutes at room temperature. IgM antibodies were stained by incubation of the cells with a conjugated mouse antibody specific for the Fc-portion of rat IgM (Monoclonal Anti-rat IGM, Clone RTM-32, Sigma) followed by incubation with a 488-conjugated secondary antibody (Invitrogen). Cells were washed with PBS, fixed with 2% paraformaldehyde (Science Services), and analyzed on a FACSCalibur™ system (BD Biosciences). Fluorescence data were expressed as mean fluorescence intensity (MFI) using Flowjo software (Tree Star, Inc., Ashland, Oreg.).
In general terms: In flow cytometry, cells or beads pass a laser one at a time.

The test system of a further data set is JAK1/2/Tyk2. Put plainly: IL-6 whole blood lymphocytes phospho-STAT3. Type of data set: cell-based. To be noted: Lymphocyte, read-out: IL-6 whole blood lymphocytes phospho-STAT3 EC50. Here is the method:
as §1

Data set [2] can be described thus: In vivo pharmacokinetics, plasma levels by LC/MS/MS. The arrangement: species or system Lewis rats. To be noted: for time of peak plasma level after administration: male Lewis rats. Here is the method: Male Lewis rats were orally administered at dosages of Compound I HD (60 mg/kg/BID); Compound I LD (15 mg/kg/BID); Compound III HD (20 mg/kg/BID), and Compound III LD (5 mg/kg/BID), respectively. Plasma levels of drugs were quantified 0.5, 1, 1.5, 2, 3, 4, 6, 8, and 10 hours after administration. Plasma levels of Compound I and Compound III were quantified by LC/MS/MS.
Pharmacokinetics were performed in male Lewis rats. Plasma levels were measured within a 10 hour period. Resulting plasma concentrations of Compound I HD (60 mg/kg BID), Compound I LD (15 mg/kg BID), Compound III HD (20 mg/kg BID), and Compound III LD (5 mg/kg BID) are depicted in FIG. 1. Compound I HD and Compound I LD plasma levels peaked 1.5-2 hours after administration. Compound III HD plasma levels peaked after 3-3.5 hours and Compound III LD levels 2 hours after administration.

A further data set concerns Syk. Put plainly: IgE CHMC tryptase release. It counts as cell-based. The note with it: Homo sapiens, read-out: IgE CHMC tryptase EC50. Here is the method: The erythropoietin (EPO)-dependent survival of cultured human erythroid progenitor cells (CHEPs) was determined using CellTiter-Glo® Luminescent Cell Viability Assay (Promega). Human primary T cell activation was assessed by measuring IL-2 production by ELISA (R&D Systems, Minneapolis, Minn., USA) following plate-bound anti-CD3 and anti-CD28 stimulation (Anti-Human CD3; BD Biosciences; Anti-Human CD28; Immunotech; Prague, Czech Republic). The enzymatic activity of tryptase released by human cultured mast cells (CHMCs) upon stimulation with IgE was quantified by cleavage of the synthetic fluorescent peptide substrate Z-Ala-Lys-Arg-7-amino-4-methylcoumarin (MP Biomedicals, Solon, Ohio, USA) in tryptase buffer. B-cell receptor-dependent Erk phosphorylation was measured in Ramos cells by intracellular FACS (anti-pT202/pY204-ERK1/2-AlexaFluor488; BD Biosciences). Cell proliferation assays were performed using A549 epithelial cells and H1299 lung carcinoma cells using nuclear staining to measure cell numbers (4′6-diamidino-2-phenylindole, dihydrochloride (DAPI; Invitrogen, Darmstadt, Germany)).

[3] abbreviates: HD oral: Compound I 60 mg/kg BID, Compound III 20 mg/kg BID.
Where [4] appears, read: LD oral: Compound I 15 mg/kg BID, Compound III 5 mg/kg BID.

Read-outs that look alike come from different tables or passages of the source.

Usually EC50 stands for the concentration giving half of the maximal effect. On to `COc1cc(Nc2ncc(C)c(Nc3ccc4oc(=O)[nH]c4c3)n2)cc(C)c1C` [Compound III, 5-(2-(3-methoxy-4,5-dimethylphenylamino)-5-methylpyrimidin-4-ylamino)benzol[d]oxazol-2-(3H)-one], for which the EC50 in the data set with JAK1/Tyk2 (read-out: IFN-γ T cell phospho-STAT1 EC50) was 7 ± 1 nM; with JAK1/2/Tyk2, 6690 ± 1610 nM; with Syk, 380 ± 150 nM. Also, the “donor-specific IgM antibodies (DSA) vs. no medication” value in data set [1] is “significant suppression”. Further, the “AUC of HD group relative to LD group” value in data set [2] (Compound I 60 vs 15 mg/kg BID, Compound III 20 vs 5 mg/kg BID, 10 hour period) is greater than 22 fold. Further, the “time of peak plasma level after administration” value is 3 to 3.5 h in data set [2] (setting [3]) and 2 h in data set [2] (setting [4]).

For the compound `COc1cc(Nc2ncc(C)c(Nc3ccc4oc(=O)[nH]c4c3)n2)cc(C)c1F` [Compound I, 5-(2-(4-fluoro-3-methoxy-5-methylphenylamino)-5-methylpyrimidin-4-ylamino)benzo[d]oxazol-2(3H)-one], the half-maximal effective concentration (EC50) amounted to 9 ± 7 nM in the data set with JAK1/Tyk2 (upstream kinases JAK1/Tyk2, read-out: IFN-γ T cell phospho-STAT1 EC50); 3830 ± 1520 nM with JAK1/2/Tyk2 (whole blood, JAK1/2/Tyk2); 457 ± 263 nM with Syk (upstream kinase Syk). In data set [1], the “donor-specific IgM antibodies (DSA) vs. no medication” value was “significant suppression”. The “time of peak plasma level after administration” value in data set [2] (setting [3]) and in data set [2] (setting [4]) was 1.5 to 2 h throughout.

For the origin of these results see patent US8637038B2, “Methods for inhibiting allograft rejection” (Rigel Pharmaceuticals, Inc., priority 2011, dated 2014).
